# Target: T1, AKT1 (Homo sapiens, UniProt P31749)
# T1 construct: purchased Upstate 14-276
# Assay: HTS ATP-utilizing enzyme assay, off-chip mobility-shift (Caliper HTS 250)
# Format: biochemical
# Details: kinase named = inhibitory activity/selectivity; test compound 10 μM; active = greater than three-sigma from mean
# How it was run: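 AKT1 activity was measured by off-chip mobility shift (Caliper HTS 250) as the ratio of peptide substrate to phosphorylated product. Test compound was at 10 μM, with 2.5 h incubation at 20–22° C. EDTA wells served as 100% control and DMSO wells as 0%. Hits were called at three-sigma limits.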
# T1 sequence (P31749 whole entry): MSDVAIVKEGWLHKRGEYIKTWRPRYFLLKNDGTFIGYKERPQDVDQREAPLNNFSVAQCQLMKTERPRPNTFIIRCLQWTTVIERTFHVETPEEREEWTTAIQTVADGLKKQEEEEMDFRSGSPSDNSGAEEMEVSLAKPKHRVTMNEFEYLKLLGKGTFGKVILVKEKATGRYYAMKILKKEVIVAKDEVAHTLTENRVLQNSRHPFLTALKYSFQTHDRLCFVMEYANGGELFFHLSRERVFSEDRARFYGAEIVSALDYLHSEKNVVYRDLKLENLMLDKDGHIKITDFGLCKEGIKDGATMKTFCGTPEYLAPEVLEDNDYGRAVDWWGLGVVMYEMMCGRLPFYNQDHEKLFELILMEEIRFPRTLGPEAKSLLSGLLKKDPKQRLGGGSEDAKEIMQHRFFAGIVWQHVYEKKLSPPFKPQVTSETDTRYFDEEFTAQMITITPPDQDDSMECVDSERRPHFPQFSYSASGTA
row,Compound,Activity
1,O=C(c1cccs1)N(CCCC(=O)N1c2ccccc2C[C@H]1CO)c1nc(-c2cc3ccccc3o2)cs1 [(S)—N-(4-(benzofuran-2-yl)thiazol-2-yl)-N-(4-(2-(hydroxymethyl)indolin-1-yl)-4-oxobutyl)thiophene-2-carboxamide],AKT1
2,O=C(c1cccs1)N(CCCN1CCOCC1)c1nc(-c2ccc3ccccc3c2)cs1 [N-(3-morpholinopropyl)-N-(4-(naphthalen-2-yl)thiazol-2-yl)thiophene-2-carboxamide],AKT1
3,O=C(CCCN(C(=O)c1cccs1)c1nc(-c2cc3ccccc3o2)cs1)N(CCO)c1ccccc1 [N-(4-(benzofuran-2-yl)thiazol-2-yl)-N-(4-((2-hydroxyethyl)(phenyl)amino)-4-oxobutyl)thiophene-2-carboxamide],AKT1
4,CCN(CC)CCCN(C(=O)c1ccco1)c1nc(-c2ccccc2)cs1 [N-(3-(diethylamino)propyl)-N-(4-phenylthiazol-2-yl)furan-2-carboxamide],AKT1
5,"COc1ccc(OC)c(-c2csc(N(CCCN3CCCC3)C(=O)c3ccccc3)n2)c1 [N-(4-(2,5-dimethoxyphenyl)thiazol-2-yl)-N-(3-(pyrrolidin-1-yl)propyl)benzamide]",AKT1
6,O=C(c1cccs1)N(CCCN1CCOCC1)c1nc(-c2ccc(N3CCCC3)cc2)cs1 [N-(3-morpholinopropyl)-N-(4-(4-(pyrrolidin-1-yl)phenyl)thiazol-2-yl)thiophene-2-carboxamide],AKT1
7,NC(=O)C1CCCN1C(=O)CCN(C(=O)c1cccs1)c1nc(-c2cc3ccccc3o2)cs1 (stereo not shown) [1-(3-(N-(4-(benzofuran-2-yl)thiazol-2-yl)thiophene-2-carboxamido)propanoyl)pyrrolidine-2-carboxamide],AKT1
8,COc1ccc(-c2csc(N(CCCN3CCOCC3)C(=O)c3ccc(F)cc3)n2)cc1 [4-fluoro-N-(4-(4-methoxyphenyl)thiazol-2-yl)-N-(3-morpholinopropyl)benzamide],AKT1
9,O=C(O)c1cccc(-c2csc(N(CCCN3CCOCC3)C(=O)c3cccs3)n2)c1 [3-(2-(N-(3-morpholinopropyl)thiophene-2-carboxamido)thiazol-4-yl)benzoic acid],AKT1
10,O=C(c1cccs1)N(CCCN1CCOCC1)c1nc(-c2nc3ccccc3s2)cs1 [N-(4-(benzo[d]thiazol-2-yl)thiazol-2-yl)-N-(3-morpholinopropyl)thiophene-2-carboxamide],AKT1
11,CN(C)CCCNC(=O)c1ccc(-c2csc(N(CCCN3CCOCC3)C(=O)c3cccs3)n2)cc1 [N-(4-(4-(3-(dimethylamino)propylcarbamoyl)phenyl)thiazol-2-yl)-N-(3-morpholinopropyl)thiophene-2-carboxamide],AKT1
12,O=C(c1cccs1)N(CCCN1CCOCC1)c1nc(-c2csc3ccccc23)cs1 [N-(4-(benzo[b]thiophen-3-yl)thiazol-2-yl)-N-(3-morpholinopropyl)thiophene-2-carboxamide],AKT1
13,O=C(c1cccs1)N(CCCc1ccccc1)c1nc(-c2cc3ccccc3o2)cs1 [N-(4-(benzofuran-2-yl)thiazol-2-yl)-N-(3-phenylpropyl)thiophene-2-carboxamide],AKT1
14,O=C(c1cccs1)N(CCCN1CCOCC1)c1nc(C(F)(F)F)cs1 [N-(3-morpholinopropyl)-N-(4-(trifluoromethyl)thiazol-2-yl)thiophene-2-carboxamide],AKT1
15,COc1ccc(-c2csc(N(CCCN3CCOCC3)C(=O)c3cccn3C)n2)cc1 [N-(4-(4-methoxyphenyl)thiazol-2-yl)-1-methyl-N-(3-morpholinopropyl)-1H-pyrrole-2-carboxamide],AKT1
16,O=C1CCCN1CCCN(C(=O)c1ccco1)c1nc(-c2cc(-c3ccccc3)no2)cs1 [N-(3-(2-oxopyrrolidin-1-yl)propyl)-N-(4-(3-phenylisoxazol-5-yl)thiazol-2-yl)furan-2-carboxamide],AKT1
17,O=C(c1ccco1)N(CCCN1CCCCCC1)c1nc(-c2ccccc2)cs1 [N-(3-(azepan-1-yl)propyl)-N-(4-phenylthiazol-2-yl)furan-2-carboxamide],AKT1
18,O=C(CCN(C(=O)c1cccs1)c1nc(-c2cc3ccccc3o2)cs1)NCCO [N-(4-(benzofuran-2-yl)thiazol-2-yl)-N-(3-(2-hydroxyethylamino)-3-oxopropyl)thiophene-2-carboxamide],AKT1
19,CC(=O)NCCCN(C(=O)c1cccs1)c1nc(-c2cc3ccccc3o2)cs1 [N-(3-acetamidopropyl)-N-(4-(benzofuran-2-yl)thiazol-2-yl)thiophene-2-carboxamide],AKT1
20,"COc1ccc(-c2csc(N(CCCCCN3CCOCC3)C(=O)c3cccs3)n2)cc1OC [N-(4-(3,4-dimethoxyphenyl)thiazol-2-yl)-N-(5-morpholinopentyl)thiophene-2-carboxamide]",AKT1

row,Compound,Activity
1,CC(=O)NCCCC(=O)NCCCN(C(=O)c1cccs1)c1nc(-c2cc3ccccc3o2)cs1 [N-(3-(4-acetamidobutanamido)propyl)-N-(4-(benzofuran-2-yl)thiazol-2-yl)thiophene-2-carboxamide],AKT1
2,"COc1ccc(-c2csc(N(CCCN3CCOCC3)C(=O)c3ccccn3)n2)cc1OC [N-(4-(3,4-dimethoxyphenyl)thiazol-2-yl)-N-(3-morpholinopropyl)picolinamide]",AKT1
3,CN(C)CCOc1ccc(-c2csc(N(CCCN3CCOCC3)C(=O)c3cccs3)n2)cc1 [N-(4-(4-(2-(dimethylamino)ethoxy)phenyl)thiazol-2-yl)-N-(3-morpholinopropyl)thiophene-2-carboxamide],AKT1
4,O=C(c1cccs1)N(CCCN1CCOCC1)c1nc(-c2ccc(OC(F)(F)F)cc2)cs1 [N-(3-morpholinopropyl)-N-(4-(4-(trifluoromethoxy)phenyl)thiazol-2-yl)thiophene-2-carboxamide],AKT1
5,CN(C)CCCOc1cccc(-c2csc(N(CCCN3CCOCC3)C(=O)c3cccs3)n2)c1 [N-(4-(3-(3-(dimethylamino)propoxy)phenyl)thiazol-2-yl)-N-(3-morpholinopropyl)thiophene-2-carboxamide],AKT1
6,O=C(c1cccs1)N(CCCN1CCOCC1)c1nc(-c2ccc(OC(F)F)cc2)cs1 [N-(4-(4-(difluoromethoxy)phenyl)thiazol-2-yl)-N-(3-morpholinopropyl)thiophene-2-carboxamide],AKT1
7,CN1CCN(CCCN(C(=O)c2ccccc2)c2nc(-c3ccccc3)cs2)CC1 [N-(3-(4-methylpiperazin-1-yl)propyl)-N-(4-phenylthiazol-2-yl)benzamide],AKT1
8,Cc1cccc(C(=O)N(CCCN2CCOCC2)c2nc(-c3ccccc3)cs2)c1 [3-methyl-N-(3-morpholinopropyl)-N-(4-phenylthiazol-2-yl)benzamide],AKT1
9,CNCCN(C)C(=O)CCN(C(=O)c1cccs1)c1nc(-c2cc3ccccc3o2)cs1 [N-(4-(benzofuran-2-yl)thiazol-2-yl)-N-(3-(methyl(2-(methylamino)ethyl)amino)-3-oxopropyl)thiophene-2-carboxamide],AKT1
10,"Cc1cc(C(=O)NCCCN(C(=O)c2cccs2)c2nc(-c3cc4ccccc4o3)cs2)nn1C [N-(3-(N-(4-(benzofuran-2-yl)thiazol-2-yl)thiophene-2-carboxamido)propyl)-1,5-dimethyl-1H-pyrazole-3-carboxamide]",AKT1
11,COC(=O)c1ccc(-c2csc(N(CCCN3CCOCC3)C(=O)c3cccs3)n2)cc1 [methyl 4-(2-(N-(3-morpholinopropyl)thiophene-2-carboxamido)thiazol-4-yl)benzoate],AKT1
12,COC[C@@H]1CCCN1CCCN(C(=O)c1cccs1)c1nc(-c2cc3ccccc3o2)cs1 [(S)—N-(4-(benzofuran-2-yl)thiazol-2-yl)-N-(3-(2-(methoxymethyl)pyrrolidin-1-yl)propyl)thiophene-2-carboxamide],AKT1
13,"CCN(CC)CCCN(C(=O)c1ccccc1)c1nc(-c2cc(OC)ccc2OC)cs1 [N-(3-(diethylamino)propyl)-N-(4-(2,5-dimethoxyphenyl)thiazol-2-yl)benzamide]",AKT1
14,O=C(c1cccs1)N(CCCN1CCOCC1)c1nc(C2CCCC2)cs1 [N-(4-cyclopentylthiazol-2-yl)-N-(3-morpholinopropyl)thiophene-2-carboxamide],AKT1
15,O=C(c1cccs1)N(CCCN1CCCC1CO)c1nc(-c2cc3ccccc3o2)cs1 (stereo not shown) [N-(4-(benzofuran-2-yl)thiazol-2-yl)-N-(3-(2-(hydroxymethyl)pyrrolidin-1-yl)propyl)thiophene-2-carboxamide],AKT1
16,NC(=O)c1ccc(-c2csc(N(CCCN3CCOCC3)C(=O)c3cccs3)n2)cc1 [N-(4-(4-carbamoylphenyl)thiazol-2-yl)-N-(3-morpholinopropyl)thiophene-2-carboxamide],AKT1
17,CCOC(=O)CC1CCN(C(=O)CCCN(C(=O)c2cccs2)c2nc(-c3cc4ccccc4o3)cs2)CC1 [ethyl 2-(1-(4-(N-(4-(benzofuran-2-yl)thiazol-2-yl)thiophene-2-carboxamido)butanoyl)piperidin-4-yl)acetate],AKT1
18,CCOC(=O)N1CCN(CCCN(C(=O)c2cccs2)c2nc(-c3cc4ccccc4o3)cs2)CC1 [ethyl 4-(3-(N-(4-(benzofuran-2-yl)thiazol-2-yl)thiophene-2-carboxamido)propyl)piperazine-1-carboxylate],AKT1
19,Cc1ccc(-c2csc(N(CCCN3CCOCC3)C(=O)c3cccs3)n2)cc1 [N-(3-morpholinopropyl)-N-(4-p-tolylthiazol-2-yl)thiophene-2-carboxamide],AKT1
20,COc1ccc(-c2csc(N(CCCN3CCOCC3)C(=O)c3nccn3C)n2)cc1 [N-(4-(4-methoxyphenyl)thiazol-2-yl)-1-methyl-N-(3-morpholinopropyl)-1H-imidazole-2-carboxamide],AKT1
